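48-hour exposure; five concentrations; linearly interpolated endpoints. Abbreviation: GI50, concentration required for 50% inhibition of growth. Definition used: TGI = concentration required for complete inhibition of growth.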
Key:
Experiment in all cases: NCI anticancer screen, dose series, 48 h
786-0 renal = tested on: 786-0 renal
A498 renal = tested on: A498 renal
A549 NSCLC = tested on: A549 NSCLC
ACHN renal = tested on: ACHN renal
BT-549 breast = tested on: BT-549 breast
CAKI-1 renal = tested on: CAKI-1 renal
CCRF-CEM leukemia = tested on: CCRF-CEM leukemia
DU-145 prostate = tested on: DU-145 prostate
EKVX NSCLC = tested on: EKVX NSCLC
HCC-2998 colon = tested on: HCC-2998 colon
HCT-116 colon = tested on: HCT-116 colon
HCT-15 colon = tested on: HCT-15 colon
HL-60(TB) leukemia = tested on: HL-60(TB) leukemia
HOP-62 NSCLC = tested on: HOP-62 NSCLC
HOP-92 NSCLC = tested on: HOP-92 NSCLC
HS 578T breast = tested on: HS 578T breast
HT29 colon = tested on: HT29 colon
IGROV1 ovarian = tested on: IGROV1 ovarian
K-562 leukemia = tested on: K-562 leukemia
KM12 colon = tested on: KM12 colon
LOX IMVI melanoma = tested on: LOX IMVI melanoma
M14 melanoma = tested on: M14 melanoma
MALME-3M melanoma = tested on: MALME-3M melanoma
MCF7 breast = tested on: MCF7 breast
MDA-MB-231 breast = tested on: MDA-MB-231 breast
MDA-MB-435 = tested on: MDA-MB-435
MOLT-4 leukemia = tested on: MOLT-4 leukemia
NCI-H226 lung = tested on: NCI-H226 lung
NCI-H23 lung = tested on: NCI-H23 lung
NCI-H460 lung = tested on: NCI-H460 lung
NCI-H522 lung = tested on: NCI-H522 lung
NCI/ADR-RES ovarian = tested on: NCI/ADR-RES ovarian
OVCAR-3 ovarian = tested on: OVCAR-3 ovarian
OVCAR-4 ovarian = tested on: OVCAR-4 ovarian
OVCAR-5 ovarian = tested on: OVCAR-5 ovarian
OVCAR-8 ovarian = tested on: OVCAR-8 ovarian
PC-3 prostate = tested on: PC-3 prostate
RPMI-8226 leukemia = tested on: RPMI-8226 leukemia
RXF 393 renal = tested on: RXF 393 renal
SF-268 CNS = tested on: SF-268 CNS
SF-295 CNS = tested on: SF-295 CNS
SF-539 CNS = tested on: SF-539 CNS
SK-MEL-2 melanoma = tested on: SK-MEL-2 melanoma
SK-MEL-28 melanoma = tested on: SK-MEL-28 melanoma
SK-MEL-5 melanoma = tested on: SK-MEL-5 melanoma
SK-OV-3 ovarian = tested on: SK-OV-3 ovarian
SN12C renal = tested on: SN12C renal
SNB-19 CNS = tested on: SNB-19 CNS
SR leukemia = tested on: SR leukemia
SW-620 colon = tested on: SW-620 colon
T-47D breast = tested on: T-47D breast
TK-10 renal = tested on: TK-10 renal
U251 CNS = tested on: U251 CNS
UACC-257 melanoma = tested on: UACC-257 melanoma
UACC-62 melanoma = tested on: UACC-62 melanoma
UO-31 renal = tested on: UO-31 renal

## C=C(C)[C@@H]1CC[C@]2(C(=O)O)CC[C@]3(C)[C@H](CC[C@@H]4[C@@]5(C)C/C(=C/c6cccc(I)c6)C(=O)C(C)(C)[C@@H]5CC[C@]43C)[C@@H]12
786-0 renal
  GI50: 2.46 µM
  TGI: 6.72 µM
A498 renal
  GI50: 2.1 µM
  TGI: 6.72 µM
A549 NSCLC
  GI50: 1.49 µM
  TGI: 6.31 µM
ACHN renal
  GI50: 2.62 µM
  TGI: 11 µM
BT-549 breast
  GI50: 2.2 µM
  TGI: 6.75 µM
CAKI-1 renal
  GI50: 2.22 µM
  TGI: 10.7 µM
CCRF-CEM leukemia
  GI50: 2.74 µM
  TGI: 10.3 µM
DU-145 prostate
  GI50: 2.63 µM
  TGI: 7.84 µM
EKVX NSCLC
  GI50: 2.65 µM
  TGI: 12.7 µM
HCC-2998 colon
  GI50: 2.69 µM
  TGI: 9.69 µM
HCT-116 colon
  GI50: 1.78 µM
  TGI: 3.53 µM
HCT-15 colon
  GI50: 2.63 µM
  TGI: 10.2 µM
HL-60(TB) leukemia
  GI50: 2.6 µM
  TGI: 8.58 µM
HOP-62 NSCLC
  GI50: 3.24 µM
  TGI: 12.6 µM
HOP-92 NSCLC
  GI50: 1.72 µM
  TGI: 5.28 µM
HS 578T breast
  GI50: 2.51 µM
  TGI: 8.75 µM
HT29 colon
  GI50: 2.9 µM
  TGI: 9.76 µM
IGROV1 ovarian
  GI50: 2.57 µM
  TGI: 8.7 µM
K-562 leukemia
  GI50: 2.37 µM
  TGI: 49.5 µM
KM12 colon
  GI50: 1.59 µM
  TGI: 3.6 µM
LOX IMVI melanoma
  GI50: 1.72 µM
  TGI: 3.58 µM
M14 melanoma
  GI50: 2.14 µM
  TGI: 5.21 µM
MALME-3M melanoma
  GI50: 2.46 µM
  TGI: 6.65 µM
MCF7 breast
  GI50: 2.64 µM
  TGI: 10.5 µM
MDA-MB-231 breast
  GI50: 2.83 µM
  TGI: 10 µM
MDA-MB-435
  GI50: 2.98 µM
  TGI: 9.74 µM
MOLT-4 leukemia
  GI50: 2.85 µM
  TGI: 9.45 µM
NCI-H226 lung
  GI50: 2.64 µM
  TGI: 10.1 µM
NCI-H23 lung
  GI50: 2.49 µM
  TGI: 8.44 µM
NCI-H460 lung
  GI50: 1.9 µM
  TGI: 4.27 µM
NCI-H522 lung
  GI50: 2.1 µM
  TGI: 6.94 µM
NCI/ADR-RES ovarian
  GI50: 3.22 µM
  TGI: 14.2 µM
OVCAR-3 ovarian
  GI50: 1.78 µM
  TGI: 3.7 µM
OVCAR-4 ovarian
  GI50: 2.38 µM
  TGI: 8.28 µM
OVCAR-5 ovarian
  GI50: 3.19 µM
  TGI: 14.7 µM
OVCAR-8 ovarian
  GI50: 2.87 µM
  TGI: 14.3 µM
PC-3 prostate
  GI50: 2.2 µM
  TGI: 10.6 µM
RPMI-8226 leukemia
  GI50: 2.07 µM
  TGI: 7.06 µM
RXF 393 renal
  GI50: 2.88 µM
  TGI: 11.8 µM
SF-268 CNS
  GI50: 3.17 µM
  TGI: 15.1 µM
SF-295 CNS
  GI50: 2.91 µM
  TGI: 12.6 µM
SF-539 CNS
  GI50: 2.17 µM
  TGI: 5.52 µM
SK-MEL-2 melanoma
  GI50: 2.4 µM
  TGI: 6.94 µM
SK-MEL-28 melanoma
  GI50: 3.09 µM
  TGI: 10.1 µM
SK-MEL-5 melanoma
  GI50: 1.8 µM
  TGI: 3.44 µM
SK-OV-3 ovarian
  GI50: 3.27 µM
  TGI: 11.9 µM
SN12C renal
  GI50: 2.93 µM
  TGI: 11.7 µM
SNB-19 CNS
  GI50: 3.28 µM
  TGI: 17.5 µM
SR leukemia
  GI50: 2.71 µM
  TGI: 12.5 µM
SW-620 colon
  GI50: 1.95 µM
  TGI: 4.58 µM
T-47D breast
  GI50: 2.9 µM
  TGI: 19 µM
TK-10 renal
  GI50: 3.25 µM
  TGI: 20.6 µM
U251 CNS
  GI50: 1.71 µM
  TGI: 3.91 µM
UACC-257 melanoma
  GI50: 2.51 µM
  TGI: 8.23 µM
UACC-62 melanoma
  GI50: 1.82 µM
  TGI: 4.16 µM
UO-31 renal
  GI50: 1.72 µM
  TGI: 5.17 µM

Source: PubChem BioAssay (NCI)
